Laboratory results published in the OligoGym collection.
“And” between values parts separate entries of the source, which are not always exact repeats. Equal values may be shown once. After the bases stand the sugars from the 5' end (letter, count) and the backbone: PS all phosphorothioate, else s phosphorothioate and o phosphodiester by linkage. Methylation of C is not given here. e = 2'-O-(2-methoxyethyl) (MOE); k = constrained ethyl (cEt); d = 2'-deoxy (DNA)

Biological target: SOD1
Details: ASO

Sequence: GGAATGTTTATTGGGCG (sugars e2 k2 d8 k2 e3, PS)
- target mRNA inhibition (HepG2, 4 µM): 37%

Sequence: GGATAACAGATGAGTTA (sugars e2 k2 d9 k2 e2, PS)
- target mRNA inhibition (HepG2, 4 µM): 63%

Sequence: GGATTAAAGTGAGGACC (sugars e3 k2 d7 k2 e3, PS)
- target mRNA inhibition (HepG2, 3 µM): 30%

Sequence: GGCCAGACCTCCGCGCCTCG (sugars e5 d10 e5, PS)
- target mRNA inhibition (HepG2, 4 µM): 49%

Sequence: GGCCTTCAGTCAGTCCTTTA (sugars e5 d10 e5, PS)
- target mRNA inhibition (HepG2, 5 µM): 41% and 39%

Sequence: GGCGATCCCAATTACAC (sugars e2 k2 d8 k2 e3, PS)
- target mRNA inhibition (HepG2, 4 µM): 33%

Sequence: GGCGATCCCAATTACACC (sugars e5 d8 e5, linkages s1 o3 s9 o2 s2)
- target mRNA inhibition (A431, 0.062 µM): 3%
- target mRNA inhibition (A431, 0.185 µM): 1%
- target mRNA inhibition (A431, 0.556 µM): 29%
- target mRNA inhibition (A431, 1.667 µM): 0%
- target mRNA inhibition (A431, 5 µM): 27%
- target mRNA inhibition (A431, 15 µM): 0%
- target mRNA inhibition (SH-SY5Y, 0.062 µM): 0%
- target mRNA inhibition (SH-SY5Y, 0.185 µM): 3%
- target mRNA inhibition (SH-SY5Y, 0.556 µM): 21%
- target mRNA inhibition (SH-SY5Y, 1.667 µM): 31%
- target mRNA inhibition (SH-SY5Y, 5 µM): 47%
- target mRNA inhibition (SH-SY5Y, 15 µM): 66%

Sequence: GGCGATCCCAATTACACCAC (sugars e5 d10 e5, linkages s1 o3 s11 o3 s1)
- target mRNA inhibition (A431, 0.12 µM): 0%
- target mRNA inhibition (A431, 0.6 µM): 0%
- target mRNA inhibition (A431, 3 µM): 0%
- target mRNA inhibition (A431, 15 µM): 30%
- target mRNA inhibition (HepG2, 0.222 µM): 24%
- target mRNA inhibition (HepG2, 0.667 µM): 34%
- target mRNA inhibition (HepG2, 2 µM): 79%
- target mRNA inhibition (HepG2, 6 µM): 55%

Sequence: GGCGATCCCAATTACACCAC (sugars e6 d8 e6, linkages s1 o3 s10 o3 s2)
- target mRNA inhibition (A431, 0.062 µM): 7%
- target mRNA inhibition (A431, 0.185 µM): 0%
- target mRNA inhibition (A431, 0.556 µM): 0%
- target mRNA inhibition (A431, 1.667 µM): 23%
- target mRNA inhibition (A431, 5 µM): 14%
- target mRNA inhibition (A431, 15 µM): 6%
- target mRNA inhibition (SH-SY5Y, 0.062 µM): 0%
- target mRNA inhibition (SH-SY5Y, 0.185 µM): 0%
- target mRNA inhibition (SH-SY5Y, 0.556 µM): 8%
- target mRNA inhibition (SH-SY5Y, 1.667 µM): 23%
- target mRNA inhibition (SH-SY5Y, 5 µM): 49%
- target mRNA inhibition (SH-SY5Y, 15 µM): 66%

Sequence: GGCGATCCCAATTACACCAC (sugars e6 d9 e5, linkages s1 o4 s10 o2 s2)
- target mRNA inhibition (A431, 0.062 µM): 0%
- target mRNA inhibition (A431, 0.185 µM): 0%
- target mRNA inhibition (A431, 0.556 µM): 0%
- target mRNA inhibition (A431, 1.667 µM): 0%
- target mRNA inhibition (A431, 5 µM): 4%
- target mRNA inhibition (A431, 15 µM): 0%
- target mRNA inhibition (SH-SY5Y, 0.062 µM): 0%
- target mRNA inhibition (SH-SY5Y, 0.185 µM): 3%
- target mRNA inhibition (SH-SY5Y, 0.556 µM): 20%
- target mRNA inhibition (SH-SY5Y, 1.667 µM): 38%
- target mRNA inhibition (SH-SY5Y, 5 µM): 61%
- target mRNA inhibition (SH-SY5Y, 15 µM): 84%

Sequence: GGCTTGAATGACAAAGA (sugars e2 k2 d8 k2 e3, PS)
- target mRNA inhibition (HepG2, 5 µM): 54%

Sequence: GGGCCTCAGACTACATC (sugars e2 k2 d8 k2 e3, PS)
- target mRNA inhibition (HepG2, 4 µM): 55%

Sequence: GGGCCTCAGACTACATC (sugars e3 k2 d7 k2 e3, PS)
- target mRNA inhibition (HepG2, 3 µM): 24%

Sequence: GTACTTTAAAGCAACTCTGA (sugars e5 d10 e5, PS)
- target mRNA inhibition (HepG2, 5 µM): 22%

Sequence: GTCACACAATTACACTT (sugars e2 k2 d8 k2 e3, PS)
- target mRNA inhibition (HepG2, 5 µM): 28%

Sequence: GTCAGTCCTTTAATGCTTCC (sugars e5 d10 e5, PS)
- target mRNA inhibition (HepG2, 5 µM): 34%

Sequence: GTCATCTGCTTTTTCAT (sugars e3 k2 d7 k2 e3, PS)
- target mRNA inhibition (HepG2, 3 µM): 74%

Sequence: GTCGCCCTTCAGCACGC (sugars e2 k2 d8 k2 e3, PS)
- target mRNA inhibition (HepG2, 4 µM): 60%

Sequence: GTGAGGACCTGCACTGG (sugars e3 k2 d7 k2 e3, PS)
- target mRNA inhibition (HepG2, 3 µM): 21%

Sequence: GTGATCATAAATCAGTT (sugars e2 k2 d8 k2 e3, PS)
- target mRNA inhibition (HepG2, 5 µM): 33%

Sequence: GTGATCATAAATCAGTTTCT (sugars e5 d10 e5, PS)
- target mRNA inhibition (HepG2, 5 µM): 37%

Sequence: GTGCCATACAGGGTTTT (sugars e2 k2 d9 k2 e2, PS)
- target mRNA inhibition (HepG2, 5 µM): 28%

Sequence: GTGTTTAATGTTTATC (sugars ekddddddddekekee, linkages s1 o1 s8 o3 s2)
- target mRNA inhibition (A431, 0.12 µM): 10%
- target mRNA inhibition (A431, 0.6 µM): 32%
- target mRNA inhibition (A431, 3 µM): 66%
- target mRNA inhibition (A431, 15 µM): 79%
- target mRNA inhibition (HepG2, 0.222 µM): 40%
- target mRNA inhibition (HepG2, 0.667 µM): 63%
- target mRNA inhibition (HepG2, 2 µM): 76%
- target mRNA inhibition (HepG2, 6 µM): 86%

Sequence: GTTTAATACCCATCTGT (sugars e3 k2 d7 k2 e3, PS)
- target mRNA inhibition (HepG2, 3 µM): 17%

Sequence: GTTTATCAGGATACATT (sugars e2 k2 d9 k2 e2, PS)
- target mRNA inhibition (HepG2, 0.1875 µM): 38%
- target mRNA inhibition (HepG2, 0.75 µM): 74%
- target mRNA inhibition (HepG2, 3 µM): 89%
- target mRNA inhibition (HepG2, 4 µM): 88%
- target mRNA inhibition (HepG2, 12 µM): 95%
